One experiment deals with T1, A2BAR (Homo sapiens, UniProt P29275).
T1 sequence (P29275 1-332): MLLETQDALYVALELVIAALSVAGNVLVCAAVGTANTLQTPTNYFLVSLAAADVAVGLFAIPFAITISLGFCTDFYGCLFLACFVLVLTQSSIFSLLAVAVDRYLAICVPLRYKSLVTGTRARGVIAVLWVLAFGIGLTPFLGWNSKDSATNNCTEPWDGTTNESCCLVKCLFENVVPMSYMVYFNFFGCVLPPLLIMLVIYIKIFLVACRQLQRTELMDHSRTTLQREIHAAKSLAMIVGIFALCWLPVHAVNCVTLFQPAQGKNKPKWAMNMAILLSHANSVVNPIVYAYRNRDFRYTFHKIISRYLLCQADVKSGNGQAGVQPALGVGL
It counts as cell-based.

In experiment [1] the target is T2, human A1 adenosine receptor (hA1AR) (Homo sapiens, UniProt P30542).
T2 sequence (P30542 1-326): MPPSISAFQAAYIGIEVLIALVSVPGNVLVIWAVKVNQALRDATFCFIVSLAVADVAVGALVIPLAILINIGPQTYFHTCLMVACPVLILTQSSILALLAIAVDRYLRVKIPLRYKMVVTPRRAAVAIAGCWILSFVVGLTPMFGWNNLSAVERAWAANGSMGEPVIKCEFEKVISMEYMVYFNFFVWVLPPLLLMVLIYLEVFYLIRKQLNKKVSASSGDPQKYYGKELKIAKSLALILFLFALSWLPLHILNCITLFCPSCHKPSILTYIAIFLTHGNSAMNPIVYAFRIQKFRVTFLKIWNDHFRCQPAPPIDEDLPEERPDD
Briefly: radioligand binding assay at human A1AR. The settings on record: read-out: % inhibition at 10μM A1.

Experiment [2] addresses human A2A adenosine receptor (hA2AAR) (Homo sapiens, UniProt P29274). Briefly: radioligand binding assay at human A2AAR. The note with it: free energy of binding divided by the number of heavy atoms.

Chain of human A2A adenosine receptor (hA2AAR) (P29274 whole entry): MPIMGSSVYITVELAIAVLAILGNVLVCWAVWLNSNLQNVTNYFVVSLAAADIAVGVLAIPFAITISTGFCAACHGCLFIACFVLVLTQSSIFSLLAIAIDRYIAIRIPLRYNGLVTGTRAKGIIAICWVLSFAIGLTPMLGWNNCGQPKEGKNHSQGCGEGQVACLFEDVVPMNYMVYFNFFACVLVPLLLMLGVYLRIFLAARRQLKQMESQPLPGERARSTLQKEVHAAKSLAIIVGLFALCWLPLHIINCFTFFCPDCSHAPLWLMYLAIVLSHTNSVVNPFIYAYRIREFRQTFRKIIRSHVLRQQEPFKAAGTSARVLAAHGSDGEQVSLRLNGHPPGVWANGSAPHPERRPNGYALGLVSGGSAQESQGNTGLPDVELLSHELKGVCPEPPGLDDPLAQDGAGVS

By inhibition is commonly meant the change of the read-out against control, counted positive when it falls. Take `Cc1cccc(O[C@H](C)C(=O)Nc2nc(-c3ccccc3)n[nH]2)c1` [Compound 1]: the “% inhibition at 10μM A2B (inhibition of cAMP accumulation)” value on A2BAR (10 μM compound, in the presence of 300 nM NECA, three independent experiments) is on record as “no significant activity”. Moreover, in experiment [1], the inhibition at 10 µM worked out at 19%. The “ligand efficiency (LE)” value in experiment [2] was 0.34.
In the case of `Cc1ccc(O[C@H](C)C(=O)Nc2nc(-c3ccco3)n[nH]2)cc1` [Compound 24], on A2BAR (read-out: % inhibition at 10μM A2B (inhibition of cAMP accumulation)), the inhibition at 10 µM is -15%.
As for `CCCC(=O)Nc1nc(-c2ccccc2)n[nH]1` [Compound 27], the “ligand efficiency (LE)” value in experiment [2] came out at 0.48.
Still for that read-out and setting: the same measure for `O=C(Nc1nc(-c2ccccc2)n[nH]1)c1ccccc1` [Compound 29]: 0.44; for `COc1ccccc1C(=O)Nc1nc(-c2ccccc2)n[nH]1` [Compound 32]: 0.42.

For the origin of these results see paper PMC3549271 (ACS medicinal chemistry letters, 2012).
